From US20130225548A1, “Pyridine Derivative and Medicinal Agent” (NIPPON SHINYAKU CO., LTD., priority 2010, published 2013)
Where a name gives a salt, the structure may show the parent alone.

These compounds were tested against T1, Syk tyrosine kinase (Homo sapiens, UniProt P43405) (assay: Test for Syk tyrosine kinase inhibitory activity (ELISA)). Conditions: Syk tyrosine kinase (Carna Biosciences), 25 μM ATP in substrate solution, 30° C. 1 hour, n=2; read-out: Evaluation (IC50, concentration inhibiting the tyrosine kinase activity at 50%).
T1 construct: purchased Carna Biosciences, Inc
Format: biochemical
How it was run: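 Syk kinase (0.025 nM stock before addition) with 625 nM biotinylated peptide and 25 μM ATP (substrate-solution levels) in Tris pH 7.5, MgCl2, DTT; 1 h at 30 °C on streptavidin plates. Phosphotyrosine detected by HRP anti-pTyr antibody, TMB, A450; IC50 by non-linear regression.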
Work on `N#Cc1ccnc(Nc2cc(C3CC3)cc(-c3ccnc(CN4CCNC(=O)C4)c3)n2)c1` [Example 87, 2-({4-cyclopropyl-2′-[(3-oxopiperazin-1-yl)methyl]-2,4′-bipyridin-6-yl}amino)pyridine-4-carbonitrile hydrochloride] yielded an IC50 of 5 to 50 nM.
In the case of `N#Cc1ccnc(Nc2cc(C3CC3)cc(-c3cncc(N[C@@H]4CCNC4)c3)n2)c1` [Example 88, 2-({4-cyclopropyl-5′-[(3R)-pyrrolidin-3-ylamino]-2,3′-bipyridin-6-yl}amino)pyridine-4-carbonitrile hydrochloride], the IC50 is reported as under 5 nM.
In the case of `N#Cc1ccnc(Nc2cc(C3CC3)cc(-c3cncc(N[C@H]4CCNC4)c3)n2)c1` [Example 89, 2-{(4-cyclopropyl-5′-[(3S)-pyrrolidin-3-ylamino]-2,3′-bipyridin-6-yl}amino)pyridine-4-carbonitrile hydrochloride], the IC50 is reported as under 5 nM.
With `N#Cc1ccnc(Nc2cc(C3CC3)cc(-c3cncc(NCCN)c3)n2)c1` [Example 90, 2-({5′-[(2-aminoethyl)amino]-4-cyclopropyl-2,3′-bipyridin-6-yl}amino)pyridine-4-carbonitrile hydrochloride] the IC50 was under 5 nM.
`N#Cc1ccnc(Nc2cc(C3CC3)cc(-c3cncc(COC4CCNCC4)c3)n2)c1` [Example 91, 2-({4-cyclopropyl-5′-[(piperidin-4-yloxy)methyl]-2,3′-bipyridin-6-yl}amino)pyridine-4-carbonitrile hydrochloride] was tested, and the IC50 was under 5 nM.
Work on `CN(Cc1cncc(-c2cc(C3CC3)cc(Nc3cc(C#N)ccn3)n2)c1)C1CCNCC1` [Example 92, 2-[(4-cyclopropyl-5′-{[N-methyl-N-(piperidin-4-yl)amino]methyl}-2,3′-bipyridin-6-yl)amino]pyridine-4-carbonitrile hydrochloride] yielded an IC50 of under 5 nM.
Work on `N#Cc1ccnc(Nc2cc(C3CC3)cc(-c3cncc(CNC4CCNCC4)c3)n2)c1` [Example 93, 2-({4-cyclopropyl-5′-[(piperidin-4-ylamino)methyl]-2,3′-bipyridine-6-yl}amino)pyridine-4-carbonitrile hydrochloride] yielded an IC50 of 5 to 50 nM.
Compound `N#Cc1ccnc(Nc2cc(C3CC3)cc(-c3cncc(NCC4CCNCC4)c3)n2)c1` [Example 94, 2-({4-cyclopropyl-5′-[(piperidin-4-ylmethyl)amino]-2,3′-bipyridin-6-yl}amino)pyridine-4-carbonitrile hydrochloride] has an IC50 of 5 to 50 nM.
With `N#Cc1ccnc(Nc2cc(C3CC3)cc(-c3cncc(NC4CNC4)c3)n2)c1` [Example 95, 2-{[5′-(azetidin-3-ylamino)-4-cyclopropyl-2,3′-bipyridin-6-yl]amino}pyridine-4-carbonitrile hydrochloride] the IC50 was under 5 nM.
Work on `N#Cc1ccnc(Nc2cc(C3CC3)cc(-c3cncc(OC4CCNCC4)c3)n2)c1` [Example 96, 2-([4-cyclopropyl-5′-(piperidin-4-yloxy)-2,3′-bipyridin-6-yl]amino)pyridine-4-carbonitrile hydrochloride] yielded an IC50 of under 5 nM.
For `N#Cc1ccnc(Nc2cc(C3CC3)cc(-c3cncc(NC[C@H]4CCNC4)c3)n2)c1` [Example 97, 2-[(4-cyclopropyl-5′-{[(3S)-pyrrolidin-3-ylmethyl]amino}-2,3′-bipyridin-6-yl)amino]pyridine-4-carbonitrile hydrochloride], the IC50 was under 5 nM.
`N#Cc1ccnc(Nc2cc(C3CC3)cc(-c3cncc(N4CCCNCC4)c3)n2)c1` [Example 98, 2-{[4-cyclopropyl-5′-(1,4-diazepan-1-yl)-2,3′-bipyridin-6-yl]amino}pyridine-4-carbonitrile hydrochloride] was tested, and the IC50 was under 5 nM.
Compound `CN1CCC(Oc2cncc(-c3cc(C4CC4)cc(Nc4cc(C#N)ccn4)n3)c2)CC1` [Example 99, 2-({4-cyclopropyl-5′-[(1-methylpiperidin-4-yl)oxy]-2,3′-bipyridin-6-yl}amino)pyridine-4-carbonitrile hydrochloride] has an IC50 of under 5 nM.
`N#Cc1ccnc(Nc2cc(C3CC3)cc(-c3cncc(OCCN4CCNCC4)c3)n2)c1` [Example 100, 2-({4-cyclopropyl-5′-[2-(piperazin-1-yl)ethoxy]-2,3′-bipyridin-6-yl}amino)pyridine-4-carbonitrile hydrochloride] gave an IC50 of 5 to 50 nM.
Work on `N#Cc1ccnc(Nc2cc(C3CC3)cc(-c3cncc(OCCN4CCOCC4)c3)n2)c1` [Example 101, 2-({4-cyclopropyl-5′-[2-(morpholin-4-yl)ethoxy]-2,3′-bipyridin-6-yl}amino)pyridine-4-carbonitrile hydrochloride] yielded an IC50 of 50 to 500 nM.
`N#Cc1ccnc(Nc2cc(C3CC3)cc(-c3cncc(OC4CNC4)c3)n2)c1` [Example 102, 2-{[5′-(azetidin-3-yloxy)-4-cyclopropyl-2,3′-bipyridin-6-yl]amino}pyridine-4-carbonitrile hydrochloride] gave an IC50 of 5 to 50 nM.
Work on `N#Cc1ccnc(Nc2cc(C3CC3)cc(-c3cncc(OC4CCN(CC(N)=O)CC4)c3)n2)c1` [Example 103, 2-[4-({6-[(4-cyanopyridin-2-yl)amino]-4-cyclopropyl-2,3′-bipyridin-5′-yl}oxy)-piperidin-1-yl]acetamide hydrochloride] yielded an IC50 of 5 to 50 nM.
Work on `N#Cc1ccnc(Nc2cc(C3CC3)cc(-c3cncc(OC4CCN(C(N)=O)CC4)c3)n2)c1` [Example 104, 4-({6-[(4-cyanopyridin-2-yl)amino]-4-cyclopropyl-2,3′-pypyridin-5′-yl}oxy)piperidine-1-carboxamide hydrochloride] yielded an IC50 of 5 to 50 nM.
`N#Cc1ccnc(Nc2cc(C3CC3)cc(-c3cnc(N4CCS(=O)(=O)CC4)nc3)n2)c1` [Example 105, 2-({4-cyclopropyl-6-[2-(1,1-dioxidethiomorpholin-4-yl)pyrimidin-5-yl]pyridin-2-yl}amino)pyridine-4-carbonitrile hydrochloride] showed an IC50 of 50 to 500 nM.
Compound `N#Cc1ccnc(Nc2cc(C3CC3)cc(-c3cnc(N4CCCN(C(N)=O)CC4)nc3)n2)c1` [Example 106, 4-(5-{6-[(4-cyanopyridin-2-yl)amino]-4-cyclopropylpyridin-2-yl}pyrimidin-2-yl)-1,4-diazepane-1-carboxamide hydrochloride] has an IC50 of 5 to 50 nM.
In the case of `CN(C)CCOc1cncc(-c2cc(C3CC3)cc(Nc3cc(C#N)ccn3)n2)c1` [Example 107, 2-({4-cyclopropyl-5′-[2-(dimethylamino)ethoxy]-2,3′-bipyridin-6-yl}amino)pyridine-4-carbonitrile hydrochloride], the IC50 is reported as 5 to 50 nM.
Work on `CN(C)C(C)(C)COc1cncc(-c2cc(C3CC3)cc(Nc3cc(C#N)ccn3)n2)c1` [Example 108, 2-({4-cyclopropyl-5′-[2-(dimethylamino)-2-methylpropoxy]-2,3′-bipyridin-6-yl}amine)pyridine-4-carbonitrile hydrochloride] yielded an IC50 of 50 to 500 nM.
`N#Cc1ccnc(Nc2cc(C3CC3)cc(-c3cncc(OCC(N)=O)c3)n2)c1` [Example 109, 2-({6-[(4-cyanopyridin-2-yl)amino]-4-cyclopropyl-2,3′-bipyridin-5′-yl}oxy)acetamide hydrochloride] gave an IC50 of 5 to 50 nM.
`CC(=O)N1CCCN(c2cncc(-c3cc(C4CC4)cc(Nc4cc(C#N)ccn4)n3)c2)CC1` [Example 110, 2-{[5′-(4-acetyl-1,4-diazepan-1-yl)-4-cyclopropyl-2,3′-bipyridin-6-yl]amino}pyridine-4-carbonitrile hydrochloride] gave an IC50 of 50 to 500 nM.
`N#Cc1ccnc(Nc2cc(C3CC3)cc(-c3cncc(N4CCC(O)C4)c3)n2)c1` (stereo not shown) [Example 111, 2-{[4-cyclopropyl-5′-(3-hydroxypyrrolidin-1-yl)-2,3′-bipyridin-6-yl]amino}pyridine-4-carbonitrile hydrochloride] showed an IC50 of 5 to 50 nM.
